Laboratory results: patent US20240115654A1, “INTRAVENOUS ADMINISTRATION OF ENGINEERED ANTIMICROBIAL AMPHIPHILIC PEPTIDES” (priority 2021, published 2024)
Values joined by “and” are separate entries in the source; they are usually repeats but may differ in a detail not shown here. Equal values may be shown once. Peptide text beside a SMILES is read from it.

Source text: All subjects who met eligibility criteria were confined to the clinical research unit from […] through Day 3. At admission, physical examination, vital signs, 12 lead ECG and weight were obtained, medical and medication history were updated if necessary, safety blood tests (hematology and chemistry), urinalysis, urine drug screen and an alcohol breath test were repeated and a urine pregnancy test was done for women of childbearing potential.
At each dose level, there were 2 sentinel subjects, (1 active, 1 placebo), who were dosed at least 48 hours in advance of the other subjects in their respective group. Following review of safety data, including physical examination, vital signs, and review of adverse events from the first 2 subjects, enrolment in the cohort continued.
A 12-lead ECG was performed on Day 1, within 60 minutes of infusion start (in triplicate), mid-way through the infusion, at the completion of the infusion, 30 minutes after completion of the infusion and at various timepoints following the end of the infusion.
Vital signs were recorded within 60 minutes pre-dose, at the mid-point of the infusion and post dose vitals were assessed at completion of the infusion, 0.5, 1, 2, 3, 4, 6, 9, 12, 24 and 48 hours post dose, after at least 3 minutes of rest in supine position.
Subjects returned to the study center 7 days after dosing, for the termination visit. A full physical examination, vital signs and weight were obtained, concomitant medications were updated if necessary, safety blood specimens (haematology and chemistry, PT and aPTT) and urine were collected for urinalysis and urine drug screening. A serum pregnancy test was done for women of childbearing potential and a 12-lead ECG was performed.
In this study dose limiting toxicity (DLT) was defined as any drug related ≥Grade 3 AEs occurring despite optimal therapeutic interventions (which included but were not limited to allergic/hypersensitivity reactions, dermatological reactions/infusion site reactions, haematological toxicities such as neutropenia, thrombocytopenia and anaemia and clinical chemistry abnormalities) experienced up to Day 7 (Termination Visit).
(§1) All subjects who received any amount of study drug were included in the safety analysis (Safety population).
The study was a double blinded, randomized, placebo-controlled study. The placebo administered was 0.9% sodium chloride.
On Day 1 (day of dosing), subjects were randomly assigned either peptide IV or Placebo IV. At each dose level, there were 2 sentinel subjects, (1 active, 1 placebo), who were dosed at least 48 hours in advance of the other subjects in their respective group. Following review of safety data, including physical examination, vital signs, and review of adverse events from the first 2 subjects, enrolment in the cohort continued. All subjects who met eligibility criteria were confined to the clinical research unit from Day −2 through Day 3. At admission, physical examination, vital signs, 12 lead ECG and weight were obtained, medical and medication history were updated if necessary, safety blood tests (hematology and chemistry), urinalysis, urine drug screen and an alcohol breath test were repeated and a urine pregnancy test was done for women of childbearing potential.
as §1

Question: What does the source list for `CC(C)[C@H](NC(=O)[C@H](Cc1c[nH]c2ccccc12)NC(=O)[C@H](CCCNC(=N)N)NC(=O)[C@H](CCCNC(=N)N)NC(=O)[C@@H](NC(=O)[C@@H](NC(=O)[C@H](CCCNC(=N)N)NC(=O)[C@@H](NC(=O)[C@@H](NC(=O)[C@H](CCCNC(=N)N)NC(=O)[C@H](CCCNC(=N)N)NC(=O)[C@H](Cc1c[nH]c2ccccc12)NC(=O)[C@@H](NC(=O)[C@H](CCCNC(=N)N)NC(=O)[C@H](CCCNC(=N)N)NC(=O)[C@@H](NC(=O)[C@H](CCCNC(=N)N)NC(=O)[C@H](CCCNC(=N)N)NC(=O)[C@@H](NC(=O)[C@H](Cc1c[nH]c2ccccc12)NC(=O)[C@H](CCCNC(=N)N)NC(=O)[C@@H](N)CCCNC(=N)N)C(C)C)C(C)C)C(C)C)C(C)C)C(C)C)C(C)C)C(C)C)C(=O)N[C@@H](CCCNC(=N)N)C(=O)N[C@@H](CCCNC(=N)N)C(N)=O` [SEQ ID NO: 1] (H-RRWVRRVRRVWRRVVRVVRRWVRR-NH2)?
Answer: Related TEAE Co[?], n participants (Pooled SEQ ID NO: 1 (N = 29)): 0; Related TEAE F[?], n participants (Pooled SEQ ID NO: 1 (N = 29)): 0; Related TEAE Nervous system disorders, n participants (Pooled SEQ ID NO: 1 (N = 29)): 0; Related TEAE O[?] (r38, respiratory SOC), n participants (Pooled SEQ ID NO: 1 (N = 29)): 0; Related TEAE Pain in extremity, n participants (Pooled SEQ ID NO: 1 (N = 29)): 0; Related TEAE Respiratory, thoracic and m[?] disorders, n participants (Pooled SEQ ID NO: 1 (N = 29)): 0; Related TEAE T[?], n participants (Pooled SEQ ID NO: 1 (N = 29)): 0; Related TEAE [?] headache, n participants (Pooled SEQ ID NO: 1 (N = 29)): 0; Related TEAE, occurrences (M) (Pooled SEQ ID NO: 1 (N = 29)): 12; TEAE A[?] (r19, skin SOC), n participants (Pooled SEQ ID NO: 1 (N = 29)): 0; TEAE Blood and lymphatic system disorders, n participants (Pooled SEQ ID NO: 1 (N = 29)): 0; TEAE Constipation, n participants (Pooled SEQ ID NO: 1 (N = 29)): 0; TEAE D[?] contact, M occurrences (Pooled SEQ ID NO: 1 (N = 29)): 3; TEAE D[?] contact, n participants (Pooled SEQ ID NO: 1 (N = 29)): 2; TEAE Gastrointestinal disorders, M occurrences (Pooled SEQ ID NO: 1 (N = 29)): 3; TEAE Gastrointestinal disorders, n participants (Pooled SEQ ID NO: 1 (N = 29)): 2; TEAE General disorders and administration site conditions, M occurrences (Pooled SEQ ID NO: 1 (N = 29)): 8; TEAE General disorders and administration site conditions, n participants (Pooled SEQ ID NO: 1 (N = 29)): 7; TEAE Injury, [?] and procedural complications, % participants (Pooled SEQ ID NO: 1 (N = 29)): 48.3%; TEAE Injury, [?] and procedural complications, n participants (Pooled SEQ ID NO: 1 (N = 29)): 14; TEAE O[?] (r37, vascular SOC), M occurrences (Pooled SEQ ID NO: 1 (N = 29)): 2; TEAE O[?] (r37, vascular SOC), n participants (Pooled SEQ ID NO: 1 (N = 29)): 1; TEAE O[?] pain, n participants (Pooled SEQ ID NO: 1 (N = 29)): 0; TEAE Related (to study drug), M occurrences (Pooled SEQ ID NO: 1 (N = 29)): 12; TEAE Related (to study drug), n participants (Pooled SEQ ID NO: 1 (N = 29)): 2; TEAE Respiratory, thoracic and [?] disorders, n participants (Pooled SEQ ID NO: 1 (N = 29)): 0; TEAE Severity Grade 1, participants % (Pooled SEQ ID NO: 1 (N = 29)): 82.8%; TEAE Severity Grade 1, participants n (Pooled SEQ ID NO: 1 (N = 29)): 24; TEAE Skin reaction, M occurrences (Pooled SEQ ID NO: 1 (N = 29)): 3; TEAE Skin reaction, n participants (Pooled SEQ ID NO: 1 (N = 29)): 2; TEAE V[?] (r24, general SOC), M occurrences (Pooled SEQ ID NO: 1 (N = 29)): 4; TEAE V[?] (r24, general SOC), n participants (Pooled SEQ ID NO: 1 (N = 29)): 3; TEAE Vascular disorders, M occurrences (Pooled SEQ ID NO: 1 (N = 29)): 5; TEAE Vascular disorders, n participants (Pooled SEQ ID NO: 1 (N = 29)): 3; TEAE [?] (r26, general SOC), n participants (Pooled SEQ ID NO: 1 (N = 29)): 0; TEAE [?] (r39, vascular SOC), n participants (Pooled SEQ ID NO: 1 (N = 29)): 0; TEAE [?] (r44, nervous SOC), n participants (Pooled SEQ ID NO: 1 (N = 29)): 0; TEAE [?] (r52, blood SOC), n participants (Pooled SEQ ID NO: 1 (N = 29)): 0; TEAE, occurrences (M) (Pooled SEQ ID NO: 1 (N = 29)): 52; Participants With At Least 1 TEAE, n (%) (Pooled SEQ ID NO: 1 (N = 35)): 31 (88.6%); Participants With At Least 1 TEAE, occurrences m (Pooled SEQ ID NO: 1 (N = 35)): 71 and 72; Participants With At Least 1 Treatment-Related TEAE, n (%) (Pooled SEQ ID NO: 1 (N = 35)): 13 (37.1%); Participants With At Least 1 Treatment-Related TEAE, occurrences m (Pooled SEQ ID NO: 1 (N = 35)): 23; TEAE by system organ class: Blood and Lymphatic System Disorders, participants n (%) (Pooled SEQ ID NO: 1 (N = 35)): 0; TEAE by system organ class: Gastrointestinal Disorders, occurrences m (Pooled SEQ ID NO: 1 (N = 35)): 4; TEAE by system organ class: Gastrointestinal Disorders, participants n (%) (Pooled SEQ ID NO: 1 (N = 35)): 3 (8.6%); TEAE by system organ class: General Disorders and Administration Site Conditions, occurrences m (Pooled SEQ ID NO: 1 (N = 35)): 17; TEAE by system organ class: General Disorders and Administration Site Conditions, participants n (%) (Pooled SEQ ID NO: 1 (N = 35)): 13 (37.1%); TEAE by system organ class: Infections and Infestations, occurrences m (Pooled SEQ ID NO: 1 (N = 35)): 1; TEAE by system organ class: Infections and Infestations, participants n (%) (Pooled SEQ ID NO: 1 (N = 35)): 1 (2.9%); TEAE by system organ class: Injury, Poisoning, and Procedural Complications, occurrences m (Pooled SEQ ID NO: 1 (N = 35)): 24; TEAE by system organ class: Injury, Poisoning, and Procedural Complications, participants n (%) (Pooled SEQ ID NO: 1 (N = 35)): 18; TEAE by system organ class: Musculoskeletal and Connective Tissue Disorders, occurrences m (Pooled SEQ ID NO: 1 (N = 35)): 6; TEAE by system organ class: Musculoskeletal and Connective Tissue Disorders, participants n (%) (Pooled SEQ ID NO: 1 (N = 35)): 6 (17.1%); TEAE by system organ class: Nervous System Disorders, occurrences m (Pooled SEQ ID NO: 1 (N = 35)): 6; TEAE by system organ class: Nervous System Disorders, participants n (%) (Pooled SEQ ID NO: 1 (N = 35)): 6 (17.1%); TEAE by system organ class: Respiratory, Thoracic, and Mediastinal disorders, participants n (%) (Pooled SEQ ID NO: 1 (N = 35)): 0; TEAE by system organ class: Skin and Subcutaneous Tissue Disorders, occurrences m (Pooled SEQ ID NO: 1 (N = 35)): 9; TEAE by system organ class: Skin and Subcutaneous Tissue Disorders, participants n (%) (Pooled SEQ ID NO: 1 (N = 35)): 7 (20.0%); TEAE by system organ class: Vascular Disorders, occurrences m (Pooled SEQ ID NO: 1 (N = 35)): 5; TEAE by system organ class: Vascular Disorders, participants n (%) (Pooled SEQ ID NO: 1 (N = 35)): 3 (8.6%); TEAE severity Grade 1, occurrences m (Pooled SEQ ID NO: 1 (N = 35)): 64; TEAE severity Grade 1, participants n (%) (Pooled SEQ ID NO: 1 (N = 35)): 30 (85.7%); TEAE severity Grade 2, occurrences m (Pooled SEQ ID NO: 1 (N = 35)): 8; TEAE severity Grade 2, participants n (%) (Pooled SEQ ID NO: 1 (N = 35)): 5 (14.3%); TEAE severity Grade 3, participants n (%) (Pooled SEQ ID NO: 1 (N = 35)): 0; TEAE severity Grade 4, participants n (%) (Pooled SEQ ID NO: 1 (N = 35)): 0
